Measured values: PubChem BioAssay (NCI)
Values joined by “and” are separate entries in the source; they are usually repeats but may differ in a detail not shown here. Equal entries are not always repeated.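 Growth conditions: 96-well plates. Treatment: test compound, 48 hours, 5 concentrations. Analysis: linear interpolation between bracketing concentrations; unreached endpoints set to highest concentration. At the GI50, growth is halved. TGI denotes the concentration required for complete inhibition of growth.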

Legend:
Assay in all cases: NCI-60 cell line screen, 48 h
[1] = test system: HOP-92 NSCLC
[2] = test system: A549 NSCLC
[3] = test system: LOX IMVI melanoma
[4] = test system: SF-295 CNS
[5] = test system: DU-145 prostate
[6] = test system: UO-31 renal
[7] = test system: IGROV1 ovarian
[8] = test system: ACHN renal
[9] = test system: HS 578T breast
[10] = test system: OVCAR-5 ovarian
[11] = test system: HCT-116 colon
[12] = test system: TK-10 renal
[13] = test system: NCI-H23 lung
[14] = test system: SNB-19 CNS
[15] = test system: SK-OV-3 ovarian
[16] = test system: SK-MEL-5 melanoma
[17] = test system: OVCAR-3 ovarian
[18] = test system: U251 CNS
[19] = test system: HT29 colon
[20] = test system: 786-0 renal
[21] = test system: MCF7 breast
[22] = test system: T-47D breast
[23] = test system: PC-3 prostate
[24] = test system: SK-MEL-2 melanoma
[25] = test system: MALME-3M melanoma
[26] = test system: K-562 leukemia
[27] = test system: OVCAR-4 ovarian
[28] = test system: MDA-N
[29] = test system: HCC-2998 colon
[30] = test system: UACC-257 melanoma
[31] = test system: HCT-15 colon
[32] = test system: EKVX NSCLC
[33] = test system: NCI-H226 lung
[34] = test system: RXF 393 renal
[35] = test system: HL-60(TB) leukemia
[36] = test system: CAKI-1 renal
[37] = test system: SW-620 colon
[38] = test system: KM12 colon
[39] = test system: M14 melanoma
[40] = test system: BT-549 breast
[41] = test system: SF-268 CNS
[42] = test system: SNB-75 CNS
[43] = test system: SF-539 CNS
[44] = test system: MDA-MB-231 breast
[45] = test system: MDA-MB-435
[46] = test system: CCRF-CEM leukemia
[47] = test system: SN12C renal
[48] = test system: HOP-62 NSCLC
[49] = test system: COLO 205 colon
[50] = test system: RPMI-8226 leukemia
[51] = test system: NCI/ADR-RES ovarian
[52] = test system: OVCAR-8 ovarian
[53] = test system: MOLT-4 leukemia
[54] = test system: UACC-62 melanoma
[55] = test system: NCI-H460 lung
[56] = test system: SR leukemia
[57] = test system: A498 renal
[58] = test system: SK-MEL-28 melanoma
[59] = test system: NCI-H522 lung
[60] = test system: DMS 114 small cell lung

COC(=O)C1=C(C(=O)OC)N(c2ccc(OC)cc2[N+](=O)[O-])C(c2ccc(C)cc2)=CC1c1ccc(OC)cc1OC (stereo unspecified)
TGI [1]: > 100 µM | TGI [2]: 65.3 µM | TGI [3]: 6.75 µM | TGI [4]: > 100 µM | TGI [5]: > 100 µM | TGI [6]: > 31.6 µM | TGI [7]: 56.8 µM | TGI [8]: > 100 µM | TGI [9]: 79.5 µM | TGI [10]: > 100 µM | TGI [11]: > 100 µM | TGI [12]: > 100 µM | TGI [13]: > 100 µM | TGI [14]: > 95.6 µM | TGI [15]: 73.3 µM | TGI [16]: > 100 µM | TGI [17]: > 95 µM | TGI [18]: 34.8 µM | TGI [19]: > 100 µM | TGI [20]: > 94 µM | TGI [21]: > 100 µM | TGI [22]: > 93.3 µM | TGI [23]: > 100 µM | TGI [24]: > 80.4 µM | TGI [25]: > 77.4 µM | TGI [26]: > 54.4 µM | TGI [27]: > 100 µM | TGI [28]: > 100 µM | TGI [29]: 30.6 µM | TGI [30]: > 100 µM | TGI [31]: 57.9 µM | TGI [32]: > 100 µM | TGI [33]: 49.9 µM | TGI [34]: 50 µM | TGI [35]: > 44.3 µM | TGI [36]: > 92.4 µM | TGI [37]: 19.2 µM | TGI [38]: 25.7 µM | TGI [39]: > 100 µM | TGI [40]: > 100 µM | TGI [41]: > 100 µM | TGI [42]: > 87.7 µM | TGI [43]: 20.8 µM | TGI [44]: > 74 µM | TGI [45]: > 100 µM | TGI [46]: > 32.4 µM | TGI [47]: 26.5 µM | TGI [48]: > 72.7 µM | TGI [49]: 20.8 µM | TGI [50]: 6.07 µM | TGI [51]: > 77.8 µM | TGI [52]: 47.9 µM | TGI [53]: 55.2 µM | TGI [54]: > 100 µM | TGI [55]: 98.7 µM | TGI [56]: 27.7 µM | TGI [57]: 46.3 µM | TGI [58]: > 100 µM | TGI [59]: 57.5 µM

C=CCn1c(N)c(C#N)c(C#N)c1-c1ccccc1
TGI [1]: > 100 µM | TGI [2]: > 100 µM | TGI [3]: > 100 µM | TGI [4]: > 100 µM | TGI [5]: > 100 µM | TGI [6]: > 100 µM | TGI [7]: > 100 µM | TGI [8]: > 100 µM | TGI [9]: > 100 µM | TGI [10]: > 100 µM | TGI [12]: > 100 µM | TGI [13]: > 100 µM | TGI [14]: > 100 µM | TGI [15]: > 100 µM | TGI [16]: > 100 µM | TGI [17]: > 100 µM | TGI [18]: > 100 µM | TGI [19]: > 100 µM | TGI [20]: > 100 µM | TGI [21]: > 100 µM | TGI [22]: > 100 µM | TGI [23]: > 100 µM | TGI [24]: > 100 µM | TGI [25]: > 100 µM | TGI [26]: > 100 µM | TGI [27]: > 100 µM | TGI [28]: > 100 µM | TGI [29]: > 100 µM | TGI [30]: > 100 µM | TGI [31]: > 100 µM | TGI [32]: > 100 µM | TGI [33]: > 100 µM | TGI [34]: > 100 µM | TGI [35]: > 100 µM | TGI [36]: > 100 µM | TGI [37]: > 100 µM | TGI [38]: > 100 µM | TGI [39]: > 100 µM | TGI [40]: > 100 µM | TGI [41]: > 100 µM | TGI [42]: > 100 µM | TGI [43]: > 100 µM | TGI [44]: > 100 µM | TGI [45]: > 100 µM | TGI [46]: > 100 µM | TGI [47]: > 100 µM | TGI [48]: > 100 µM | TGI [49]: > 100 µM | TGI [50]: > 100 µM | TGI [51]: > 100 µM | TGI [52]: > 100 µM | TGI [53]: > 100 µM | TGI [54]: > 100 µM | TGI [56]: > 100 µM | TGI [57]: > 100 µM | TGI [59]: > 100 µM

CCOC(=O)c1ccc(NC(=O)Oc2ccc3c(C)cc(=O)oc3c2)cc1
TGI [1]: 54.1 µM | TGI [2]: > 100 µM | TGI [3]: > 100 µM | TGI [4]: > 100 µM | TGI [5]: > 100 µM | TGI [6]: > 100 µM | TGI [7]: > 100 µM | TGI [8]: > 100 µM | TGI [9]: 84.1 µM | TGI [10]: > 100 µM | TGI [11]: 82.9 µM | TGI [12]: > 100 µM | TGI [13]: > 100 µM | TGI [14]: > 100 µM | TGI [15]: 94.4 µM | TGI [16]: 29.1 µM | TGI [17]: > 100 µM | TGI [18]: > 100 µM | TGI [19]: > 100 µM | TGI [20]: > 100 µM | TGI [21]: 88 µM | TGI [22]: 78 µM | TGI [23]: > 100 µM | TGI [24]: 79 µM | TGI [25]: > 100 µM | TGI [26]: 66.7 µM | TGI [27]: > 100 µM | TGI [28]: > 100 µM | TGI [29]: 51.1 µM | TGI [30]: > 100 µM | TGI [31]: > 100 µM | TGI [32]: > 100 µM | TGI [33]: 81.3 µM | TGI [34]: > 100 µM | TGI [35]: 62.2 µM | TGI [36]: > 100 µM | TGI [37]: > 100 µM | TGI [38]: > 100 µM | TGI [39]: > 100 µM | TGI [40]: 89.5 µM | TGI [41]: > 100 µM | TGI [42]: 98.1 µM | TGI [43]: > 100 µM | TGI [44]: 82.8 µM | TGI [45]: > 100 µM | TGI [46]: 58.4 µM | TGI [47]: > 100 µM | TGI [48]: 98.6 µM | TGI [49]: > 100 µM | TGI [50]: 72.9 µM | TGI [51]: > 100 µM | TGI [52]: > 100 µM | TGI [53]: 58 µM | TGI [54]: > 100 µM | TGI [55]: > 100 µM | TGI [56]: 54.2 µM | TGI [57]: > 100 µM | TGI [58]: > 100 µM | TGI [59]: 66.7 µM

CC(C)SC1CC2C(CC1(C)O)C2(C)C (stereo unspecified)
GI50 [35]: 53.4 µM and 9.68 µM | TGI [35]: > 100 µM | GI50 [60]: 89.7 µM and 18.7 µM | TGI [60]: > 100 µM

O=C1Sc2cc3ccccc3cc2C(=O)Sc2ccc(Br)cc21
TGI [1]: 20.9 µM | TGI [2]: 30.9 µM | TGI [3]: 3.97 µM | TGI [4]: 29.1 µM | TGI [5]: 16.9 µM | TGI [7]: 16.8 µM | TGI [8]: 6.02 µM | TGI [9]: > 35 µM | TGI [10]: 25.5 µM | TGI [11]: 16.3 µM | TGI [12]: 17.8 µM | TGI [13]: 23.3 µM | TGI [14]: 32.2 µM | TGI [15]: 29.3 µM | TGI [16]: 27.5 µM | TGI [17]: 5.21 µM | TGI [18]: 5.27 µM | TGI [19]: 13.1 µM | TGI [20]: 5.63 µM | TGI [21]: 37.9 µM | TGI [22]: 23.8 µM | TGI [23]: 12.9 µM | TGI [24]: 12.8 µM | TGI [25]: 26.5 µM | TGI [26]: 19.2 µM | TGI [27]: 35.2 µM | TGI [28]: 18 µM | TGI [29]: 19.3 µM | TGI [30]: 17.6 µM | TGI [31]: 7.71 µM | TGI [32]: 28.1 µM | TGI [33]: 42.6 µM | TGI [34]: 7.88 µM | TGI [35]: > 100 µM | TGI [36]: 14.8 µM | TGI [37]: 14.2 µM | TGI [38]: 21.2 µM | TGI [39]: 14.4 µM | TGI [40]: 12.1 µM | TGI [41]: 23.2 µM | TGI [42]: 13.3 µM | TGI [43]: 27 µM | TGI [44]: 12.2 µM | TGI [45]: 13.4 µM | TGI [46]: > 19.7 µM | TGI [47]: 16.8 µM | TGI [48]: 18.3 µM | TGI [49]: 34.9 µM | TGI [50]: > 100 µM | TGI [51]: 15.6 µM | TGI [52]: 9.53 µM | TGI [53]: > 31.6 µM | TGI [54]: 10.5 µM | TGI [55]: 24.2 µM | TGI [56]: 9.14 µM | TGI [57]: 33.4 µM | TGI [58]: 9.79 µM | TGI [59]: 4.52 µM
